Here are results for three molecules from US10076578B2, “Probes for imaging of hypoxia” (Vanderbilt University, priority 2014, dated 2018).

Where a name gives a salt, the structure may show the parent alone.

Data set [1] deals with R28 rat retinal neuronal cells. Description: in vitro imaging agent uptake assay (microplate fluorescence spectrophotometric assay). Type of data set: cell-based. The note with it: for dose dependence of fluorescence in hypoxic cells: 12 h hypoxia, n=8. The protocol:
(§1) Primary human Müller cells and R28 cell line were grown in low glucose DMEM supplemented with 10% Fetal Bovine Serum, 1× GlutaMAX, and 1× Penicillin-Streptomycin. All cells were maintained in a humidified environment with 5% CO2 at 37° C. unless otherwise noted. For hypoxia induction, assay plates were placed into a humidified chamber and ambient air was displaced with a mixture of 5% CO2 and 95% N2 at a flow rate of 20 L/min for 5 min according to manufacturer instructions and published methods (28). The chamber was clamped and placed at 37° C. for the remainder of the time point. R28 cells were treated with 100 μM pimonidazole hydrochloride diluted in complete media and subjected to hypoxia or normoxia for 4 h.
(§2) To perform in vitro imaging agent uptake assays, R28 cells or primary human Müller cells were seeded at a density of 15,000 cells per well in a 96-well black plate with clear bottom. When 90% confluent, assay plates were either place in hypoxia or kept in normoxia for 12 h. They were treated with imaging agents diluted in complete media and returned to hypoxia or kept in normoxia for 30 min. They were washed 4 times with pre-warmed Hank's Buffered Salt Solution (HBSS), kept in normoxia for 1 h, then washed 4 more times in HBSS. Fluorescence intensity was read ([…]: 490 nm, Emission: 520 nm) using a Synergy Mx Plate Reader from Biotek.
(§3) In order to measure the specificity of HYPOX-1 and HYPOX-2 for hypoxic retinal tissues in vitro, R28 rat retinal neuronal (17, 18) or primary human Müller cells (19) were conditioned in a hypoxic chamber purged with a mixture of nitrogen/carbon dioxide up to 12 h. These two cell lines model predominant oxygen-sensitive cell types in retinal diseases with a hypoxia-ischemia component (20). […] The micromolar doses of HYPOX-1 and HYPOX-2 used in these experiments are modeled on doses used to achieve optimal signal to background ratios using pimonidazole immunohistochemistry (21).

Data set [2] relates to primary human Müller cells. The description is as above. In kind it is cell-based. The note with it: for increase in hypoxic/normoxic fluorescence intensity ratio: 100 μM; for increase in hypoxic/normoxic fluorescence intensity ratio / dose dependence of fluorescence in hypoxic cells: 12 h hypoxia; for dose dependence of fluorescence in hypoxic cells: Müller cells, n=8. The protocol: as §1, §2, §3

Data set [3] concerns Human Retinal Microvascular Endothelial Cells (HRMEC). Put plainly: Western analysis of cell lysates with anti-Hypoxyprobe antibody. The following applies: 100 μM, 4 h, hypoxic vs normoxic HRMEC. In kind it is cell-based. The protocol: FIG. 2G. HYPOX-1 accumulation in hypoxic retinal cells occur through nitroimidazole adduct formation. Human Retinal Microvascular Endothelial Cells (HRMEC) were treated with 100 μM HYPOX-1 under normoxic or hypoxic conditions for 4 h. Cell lysates were probed with an anti-Hypoxyprobe antibody by Western analysis.
(§4) Imaging of R28 cells incubated with the hypoxia-sensitive imaging agents further confirmed specificity and mechanism of action.

Data set [4] concerns R28 cells. Description: BrdU cell proliferation assay (in vitro toxicity). In kind it is cell-based, rat. The following applies: up to 100 μM, 24 h. As to the method: FIG. 3A-3B. […] (n=4), p<0.01.
For in vitro toxicity studies, a BrdU cell proliferation assay was performed on R28 cells. The assay was performed according to the manufacturer's protocol with the following specifications. Cells were seeded at 2000 cells/well in a 96-well plate. 24 h after seeding, the cells were serum starved for 6 h. Imaging agents and vehicle controls diluted in complete media were added and allowed to incubate for 24 h. 4 h prior to the end of the incubation, BrdU was added at a concentration of 10 μM.
Both imaging agents were not acutely toxic to retinal cells as assessed by BrdU cell proliferation assays (FIG. 3).

Data set [5] deals with avascular hypoxic retina of OIR mice. Put plainly: mouse model of oxygen induced retinopathy (OIR), ex vivo imaging of retinal flatmounts. In kind it is in vivo. The source says:
FIG. 4A-4F. […] FIGS. 4(A) and 4(C) HYPOX-1 in P13 OIR mouse retina. FIGS. 4(B) and 4(D) Pimonidazole immunostaining colocalizes with HYPOX-1 region. […] FIG. 5. Retinal flatmounts from OIR mice intravenously injected with HYPOX-1 (green) were stained with endothelial cell marker, ICAM-2 (red). Accumulation of HYPOX-1 is observed in avascular retina. The mouse model of oxygen induced retinopathy (OIR) was selected as a mouse model for hypoxia and generated as published (24). Briefly, litters with 6 to 8 pups were placed into a 75% oxygen chamber with dams from P7-P12. On P12, pups were removed from the hyperoxic environment to room air. Imaging agents, vehicle controls and dye controls were intravitreally injected (3 μg in 1 μL injection volume) or intravenously injected via tail vein (60 mg/kg) 6 h after removal from hyperoxic environment. Pimonidazole hydrochloride (Hypoxyprobe Inc.) was injected intraperitoneally at a concentration of 60 mg/kg body weight. Immunofluorescence analysis of retinal tissues was performed by dissecting retinas from ocular tissues and fixing them in 10% neutral buffered formalin for 2 h. Tissues were then rinsed in Tris buffered saline and blocked/permeabilized in 10% donkey serum with 1% Triton X-100/0.05% Tween 20 in TBS for 6 h. Retinas were then stained for ICAM-2 and Hypoxyprobe followed by secondary antibody staining as indicated. […] Staining of excised retinas with ICAM-2 was used to identify retinal vasculature and its association with HYPOX staining. […] In addition, HYPOX accumulation in retinal tissue can be accomplished through intraocular or intravenous injection routes.

Data set [6] concerns R28 cells. Put plainly: immunofluorescence imaging of cells incubated with imaging agent. In kind it is cell-based, rat. The following applies: 100 μM, 4 h. The protocol:
FIG. 2A-2F. R28 retinal neuronal cell lines conditioned under normoxic or hypoxic (4 h) conditions were incubated with 100 μM HYPOX-2 followed by fixation and immunostaining with an antibody specific for pimonidazole adducts in hypoxic cells.
Immunofluorescence analysis of cells was performed by seeding R28 cells at a density of 15,000 cells per well of 8-well chamber slides. When 90% confluent, cells were treated with either imaging agent and pimonidazole hydrochloride or imaging agent only, diluted in complete media, and placed in hypoxia or normoxia for 4 h. Cells were washed 4 times in HBSS, fixed for 10 min with 10% neutral buffered formalin at room temperature, washed 3 times with tris buffered saline and mounted with Prolong Gold with DAPI mounting media.
as §4

The test system of data set [7] is R28 cells. Put plainly: Hypoxyprobe adduct immunostaining of normoxia- or hypoxia-conditioned cells. Type of data set: cell-based, rat. The note with it: 100 μM. The protocol: as §1, with “FIG. 1A. R28 cells were treated with 100 μM pimonidazole hydrochloride (Hypoxyprobe) and subjected to normoxia or hypoxia-conditioning for 4 h, followed by Hypoxyprobe adduct immunostaining. […] Primary” for “Primary”, “h. In order to measure the specificity of HYPOX-1 and HYPOX-2 for hypoxic retinal tissues in vitro, R28 rat retinal neuronal (17, 18) or primary human Müller cells (19) were conditioned in a hypoxic chamber purged with a mixture of nitrogen/carbon dioxide up to 12 h. These two cell lines model predominant oxygen-sensitive cell types in retinal diseases with a hypoxia-ischemia component (20). […]” for “h.”

In the case of `O=C1OC2(c3ccc(O)cc3Oc3cc(O)ccc32)c2ccc(NC(=S)NCCCCCn3ccnc3[N+](=O)[O-])cc21` [HYPOX-1], in data set [1], the “fluorescence intensity of hypoxia-conditioned vs normoxia-conditioned cells” value is recorded as “significantly higher fluorescence intensity” and the “dose dependence of fluorescence in hypoxic cells” value (from here on “dose dependence of fluorescence”) was “dose-dependent fluorescence enhancement”. In data set [2] (human Müller cells), the “increase in hypoxic/normoxic fluorescence intensity ratio” value was determined as 5 fold and the “fluorescence intensity of hypoxia-conditioned vs normoxia-conditioned cells” value was “significantly higher fluorescence intensity”. Further, in data set [2], the “dose dependence of fluorescence” value is on record as “dose-dependent fluorescence enhancement”. In addition, in data set [2] (concentrations lower than 50 μM), the detectability of probe entry is “not detectable”. Also, the “nitroimidazole adduct formation (Western)” value in data set [3] is “Adduct formation was increased in hypoxic cells”. Also, the “cell proliferation (BrdU incorporation)” value in the data set on R28 cells [4] is “no significant decrease in cell proliferation”. Also, the “accumulation in retina, intraocularly injected” value in data set [5] (OIR mice P13, intravitreal 3 μg, retinal flatmounts) is “accumulation of intraocularly-injected HYPOX-1 in central avascular retinas”. Besides, the “accumulation in retina, intravenously injected” value in data set [5] (OIR mice, tail vein 60 mg/kg, ICAM-2 co-staining) is reported as “accumulated in avascular regions”. The “accumulation in retina of age matched control mice” value in data set [5] (room air control mice with fully vascularized retinas) was “did not accumulate”.
Regarding `O=C1OC2(c3ccc(O)cc3Oc3cc(O)ccc32)c2ccc(NC(=S)NCC3CCN(CC(O)Cn4ccnc4[N+](=O)[O-])CC3)cc21` (stereo not drawn) [HYPOX-2], in data set [1], the “fluorescence intensity of hypoxia-conditioned vs normoxia-conditioned cells” value is “significantly higher fluorescence intensity” and the “dose dependence of fluorescence” value is recorded as “dose-dependent fluorescence enhancement”. The “greater fluorescence intensity in hypoxia-conditioned cells” value in data set [2] (10 μM, human Müller cells) worked out at 32 fold. Besides, in data set [2] (human Müller cells), the “increase in hypoxic/normoxic fluorescence intensity ratio” value is 11 fold and the “fluorescence intensity of hypoxia-conditioned vs normoxia-conditioned cells” value is listed as “significantly higher fluorescence intensity”. In addition, in data set [2], the “dose dependence of fluorescence” value is “dose-dependent fluorescence enhancement”. For the same molecule, the “pimonidazole adducts by adduct-specific antibody” value in the data set with R28 cells [6] (hypoxic R28 cells, but not normoxic cells) was “positive for pimonidazole adducts”. Further, in the data set with R28 cells [6] (hypoxic vs normoxic R28 cells), the “accumulation in cells (fluorescence imaging)” value is recorded as “accumulated in hypoxic cells but not normoxic cells”. Also, the “cell proliferation (BrdU incorporation)” value in the data set on R28 cells [4] is listed as “no significant decrease in cell proliferation”.
As to `O=[N+]([O-])c1nccn1CC(O)CN1CCCCC1` (stereo not drawn) [pimonidazole hydrochloride, reference compound], in data set [5] (OIR mice, intraperitoneal 60 mg/kg), the “Hypoxyprobe immunostaining of central avascular retina” value is “positive immunostaining”. Also, the “accumulation in retina of room air mice (Hypoxyprobe staining)” value in data set [5] (room air mice) is reported as “no pimonidazole accumulation”. Besides, the “Hypoxyprobe adduct immunostaining, hypoxia-conditioned cells” value in the data set on R28 cells [7] (4 h hypoxia) is reported as “positive staining”. Moreover, the “Hypoxyprobe adduct immunostaining, normoxia-conditioned cells” value with R28 cells [7] (4 h normoxia) was “minimal fluorescence”.
